According to patent US20220226444A1, “FORMULATIONS OF FOSAPREPITANT AND APREPITANT” (Zhuhai Beihai Biotech Co., Ltd., priority 2016, published 2022):
“Also recorded” adds a separate entry of the source.

Columns and labels:
[1] = cited from earlier work
[2] = Stability of fosaprepitant in a human serum albumin (HSA) solution, visual clarity; type: physicochemical; details: for appearance of solution initially: 25° C.; for appearance of solution over time: after 1, 2, 3, 4, 6, 8 and 24 hours at 25° C.
Method: To 3 different vials containing 25 mg of fosaprepitant dimeglumine each were added 1 ml of 10% HSA solution (w/v), 1 ml of 5% HSA solution (w/v), and 1 ml of 2% HSA solution (w/v), respectively, at 25° C.

[3] = pH value of the aqueous solution with or without HSA; type: physicochemical; details: about 25° C.
Method: 245.3 mg of fosaprepitant dimeglumine and 0.28 mg of palonosetron hydrochloride were dissolved in methanol, and then methanol was removed from the solution to give a white solid.

[4] = 25 mg in 1 ml of 2% HSA solution (w/v)
[5] = 25 mg in 1 ml of 5% HSA solution (w/v)
[6] = 25 mg in 1 ml of 10% HSA solution (w/v)

Structure (SMILES) | solubility in acetonitrile ([1]; acetonitrile) | solubility in ethanol ([1]; ethanol) | solubility in isopropyl acetate ([1]; isopropyl acetate) | solubility in water [1] | appearance of solution initially [2, 4] | appearance of solution over time [2, 4] | appearance of solution initially [2, 5] | appearance of solution over time [2, 5] | appearance of solution initially [2, 6] | appearance of solution over time [2, 6] | pH value of the clear aqueous solution ([3]; 24.5 mg in 15 ml of 0.9% saline solution) | pH value of the clear aqueous solution ([3]; 24.5 mg in 15 ml of HSA solution (0.5 ml of 20% HSA + 14.5 ml of 0.9% saline))
C[C@@H](O[C@H]1OCCN(Cc2n[nH]c(=O)[nH]2)[C@H]1c1ccc(F)cc1)c1cc(C(F)(F)F)cc(C(F)(F)F)c1 [Aprepitant, aprepitant] | slightly soluble | sparingly soluble | sparingly soluble | practicallyinsoluble; also recorded: insoluble |  |  |  |  |  |  |  | 
C[C@@H](O[C@H]1OCCN(Cc2nn(P(=O)(O)O)c(=O)[nH]2)[C@H]1c1ccc(F)cc1)c1cc(C(F)(F)F)cc(C(F)(F)F)c1 [fosaprepitant dimeglumine] |  |  |  |  | clear aqueous solution | stayed clear | clear aqueous solution | stayed clear | clear aqueous solution | stayed clear | 7.70 | 7.15
C[C@@H](O[C@H]1OCCN(Cc2nc(O)n(P(=O)(O)O)n2)[C@H]1c1ccc(F)cc1)c1cc(C(F)(F)F)cc(C(F)(F)F)c1 [fosaprepitant] |  |  |  | soluble |  |  |  |  |  |  |  | 
